Results: US20130303605A1, “EXTERNAL COMPOSITION FOR SKIN CONTAINING MANASSANTIN B AS ACTIVE INGREDIENT AND THE USE THEREOF FOR SKIN WHITENING” (Amorepacific Corporation, priority 2006, published 2013)

What was measured:
[1] = tested on: melanophilin and myosin 5a; experiment: Inhibition of binding between melanophilin and myosin 5a (plate binding, chemiluminescence); details: his-GFP-mlphCT on nickel-coated plate, Flag-MyosinVa GT, chemiluminescence (FIG. 2)
Text: Proteins required in the test were produced in large amounts using a suitable system (E. coli) or baculovirus. Herein, the designed proteins essentially included domains known to be required for protein interaction and contained GST, His tag or flag tag such that the produced proteins could be easily purified and isolated. Each of a histidine tagged-GFP-melanophilin recombinant protein and a Flag-MyosinVa recombinant protein, which were to be used as bait proteins, were expressed in a baculovirus system, cells containing the proteins were disrupted, and then extracts were prepared. Flag-MyosinVa GT was prepared into an extract with PBS TG buffer solution, and then purified by flag-affinity chromatography.
The his-GFP-mlphCT protein prepared in the step 1 was bound to a nickel-coated plate through reaction. To the plate, binding partner Flag-MyosinVa GT was bound, and then an M2 antibody recognizing the flag was bound. The plate was subjected to color development reaction by chemiluminescence to measure the degree of binding between the proteins.

[2] = tested on: melan-a cells and SP-1 cells; experiment: Inhibition of melanin synthesis in coculture of melanocytes and keratinocytes; format: cell-based, mouse
Protocol: Melanocytes were cultured in the same manner as in the step 1 of Test Example 1. Mouse keratinocytes SP-1 cells were cultured to a confluency of […] in 8% fetal bovine serum-containing s-MEM medium in a 10% CO2 incubator, while the medium was replaced with fresh medium at 3-days intervals.
The melan-a cells and SP-1 cells cultured in the step were separated with 0.25% Trypsin-EDTA and spread together on a 12-well plate at a ratio of 1:10 at cell densities of 1×10^4 cells/well for melan-a and 1×10^5 cells/well for SP-1. Then, the cells were left to stand for 24 hours. The cells were treated with manassantin B at various concentrations, and after 5 days, the cells were collected with 1N NaOH. The collected cells were measured for absorbance at 405 nm and measured for protein concentration using the Lowry method.

melan-a cells = experiment: Inhibition of melanosome transfer at cell level (optical microscope observation); format: cell-based, mouse; details: various concentrations, after 4 days, optical microscope (FIG. 1)
Protocol: Melan-a Cells, Immortalized Mouse Melanocytes, Were cultured to a confluency of 90% in 10% fetal bovine serum-containing RPMI 1640 medium in a 10% CO2 incubator, while the medium was replaced with fresh medium at 3-day intervals.
The melan-a cells cultured in the step 1 were separated using 0.25% trypsin-EDTA and spread on a 6-well plate at a density of 3×10^5 cells/well. Then, the cells were left to stand for 24 hours.

tyrosinase = target: T1, tyrosinase (Mus musculus, UniProt P11344); experiment: Tyrosinase activity inhibition in melanocyte lysate (L-DOPA, absorbance 490 nm); format: biochemical; details: melan-a cell lysate, 1 hour with various concentrations, absorbance at 490 nm (FIG. 3)
T1 construct: disrupted with 0.1M phosphate buffer (containing 1% triton x-100); endogenous in cells; host or cells: cultured melanocytes (melan-a), cell lysate supernatant
T1 sequence (P11344 19-533): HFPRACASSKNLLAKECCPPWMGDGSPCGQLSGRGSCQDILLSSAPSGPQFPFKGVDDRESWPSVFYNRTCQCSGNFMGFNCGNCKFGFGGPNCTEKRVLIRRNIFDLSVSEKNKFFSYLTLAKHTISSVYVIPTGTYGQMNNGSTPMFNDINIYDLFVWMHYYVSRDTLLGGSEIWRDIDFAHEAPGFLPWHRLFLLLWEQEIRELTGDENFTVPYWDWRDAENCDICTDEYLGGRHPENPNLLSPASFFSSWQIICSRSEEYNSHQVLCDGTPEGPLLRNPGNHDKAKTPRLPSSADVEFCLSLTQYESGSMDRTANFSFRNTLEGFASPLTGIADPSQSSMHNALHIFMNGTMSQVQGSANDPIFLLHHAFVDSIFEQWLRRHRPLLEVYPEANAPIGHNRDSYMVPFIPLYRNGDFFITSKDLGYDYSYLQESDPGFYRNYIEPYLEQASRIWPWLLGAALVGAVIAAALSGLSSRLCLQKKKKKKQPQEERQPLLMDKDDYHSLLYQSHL
Protocol: Melanocytes were cultured in the same manner as in the step 1 of Test Example 1.
The cells cultured in the step 1 were washed once with cold PBS, and then disrupted with 0.1M phosphate buffer (containing 1% triton x-100). Then, the cells were centrifuged at 1400 rpm for 20 minutes, and the cell supernatant was isolated. 40 μg of the protein thus prepared was mixed with various concentrations of manassantin B and allowed to react for 1 hour. The reaction material was treated with 2 mg/ml of L-DOPA solution and left to stand 37° C.

[3] = tested on: acyl CoA cholesterol acyltransferase; details: Korean Patent Application No. 10-2003-0080397; cited from earlier work

COc1ccc([C@@H](O)[C@@H](C)Oc2ccc([C@H]3O[C@H](c4ccc(O[C@H](C)[C@H](O)c5ccc6c(c5)OCO6)c(OC)c4)[C@H](C)[C@H]3C)cc2OC)cc1OC [manassantin B]
degree of binding between melanophilin and myosin 5a [1]: inhibited the binding
inhibition at 0.02 ppm ([2]; Mus musculus, 120 h, coculture melan-a:SP-1 1:10, 5 days, manassantin B concentration of 0.02 ppm): ~50%
inhibition of melanin synthesis ([2]; coculture melan-a:SP-1 1:10, various concentrations, 5 days (FIG. 4)): inhibited melanin synthesis in a concentration-dependent manner
configuration of the cells / distribution (transfer) of melanosomes (melan-a cells): melanosomes were gathered together around the nuclei
inhibition of tyrosinase activity (tyrosinase): did not directly inhibit
inhibition of activity of acyl CoA cholesterol acyltransferase [3]: inhibit the activity of acyl CoA cholesterol acyltransferase
